{"source": "patent US20080269332A1", "about": "“EYELASH ENHANCEMENT COMPOSITION AND METHOD OF TREATMENT” (LA CANADA VENTRURES, INC., priority 2007, published 2008)", "test_system": "eyelash growth", "experiment": "Randomized double blind clinical trial of eyelash growth, daily topical application to root of upper eyelashes for 4 weeks", "assay_type": "in vivo, human", "protocol": "These solutions were each applied daily to the roots of the upper right and left eyelashes of the patients in a quantity of approximately 0.0164 ml. Patients applied the eyelash product daily for 4 weeks on the root of the upper eyelashes only since some of the solution used may ultimately be deposited on the lower lash interfering with the studies' parameters. Methods: 34 patients were randomly assigned to one of three different treatment groups based on a standard treatment of the upper right lash and different treatments of the upper left eye lash with varying concentrations of the active product and a placebo. Age range of the patients was 20-56; 33 female, 1 male. Three different treatment Groups were constructed based on RIGHT EYE lash treatment/LEFT EYE lash treatment and defined as Groups A/B, A/D and A/C). All patients used Solution A on the right eye lash which is the “Control Group”, with Solutions B, D, and C used on the left eye lash of these same patients. Group A/B (14 patients) used Solution A on the upper right lash and Solution B on the upper left lash. Group A/D (9 patients) used Solution A on the upper right lash and Solution D on the upper left lash. Group A/C (11 patients) used Solution A on the upper right lash and the placebo, Solution C, on the upper left lash. After four (4) weeks upper RIGHT eyelash measurement were made for all 34 randomized patients. The upper LEFT eyelash measurement were made for the 14 patients using Solution B, for the 9 patients using Solution D and the 11 patients using Solution C (the placebo). Eyelash measurements for both the upper right and left eyelashes were taken in the medial, middle and lateral locations on both upper and lower eyelids using micocalipers and measured to 0.1 mm. The mean of the six measurements were then used to calculate the eyelash length for each eye. Measurements were taken at the initiation of the study to use as standard base. The technicians performing the measurements were blinded to the patient group assignment. A paired two-tailed Student's t-Test was used for statistical analysis. All patients enrolled into the study underwent a standard informed consent procedure."}
{"smiles": "CCNC(=O)CCC/C=C\\C[C@@H]1[C@@H](/C=C/[C@@H](O)COc2ccccc2)[C@H](O)C[C@@H]1O", "note": "[active agent, (z)-7-((1R,2R,3R,5S)-3,5-dihydroxy-2-((R,E)-3-hydroxy-4-phenoxybut-1-enyl)cyclopentyl)-N-ethylhept-5-enamide]", "values": [{"measurement": "increase lash growth relative to placebo (growth with active / growth with placebo ×100)", "setting": "4 weeks of daily use, placebo Solution C growth 0.63 mm", "value": 268.25, "unit": "%"}, {"measurement": "patients subjectively reporting an increase in the thickness or fullness of their eyelashes", "setting": "9/34 patients, 4 weeks of daily use", "value": 26, "unit": "%"}, {"measurement": "patients reporting mild or minimal irritation", "setting": "19/34 patients, typically resolved after several days of use", "value": 56, "unit": "%"}, {"measurement": "patients reporting moderate irritation and discontinuing", "setting": "34 patients, daily topical use", "value": "One patient reported moderate irritation and discontinued the product"}]}
